Assay results published in US20250333397A1 (REMIX THERAPEUTICS INC., priority 2021, published 2025).
Where a name gives a salt, the structure may show the parent alone. Read-outs that look alike come from different tables or passages of the source.

Experiments:
Type in all cases: cell-based, human
HTT mRNA = assay: RT-qPCR splicing assay, HTT canonical (CJ) and alternative (AJ) junction mRNA; conditions: for AC50: read-out: HTT AJ (AC50, increase in AJ mRNA)
How it was run: (§1)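 CJ and AJ junction levels were quantified by RT-qPCR on lysates, with housekeeper ΔCt normalized to DMSO (ΔΔCt) and expressed as RQ = 2^(-ΔΔCt). Before lysis, K562 or A673 cells had 24 h compound exposure at 37 °C. Dosing was 11 points, 3-fold, from 10 uM final, with DMSO at most 0.25%.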

MYB mRNA = assay: RT-qPCR splicing assay, MYB canonical (CJ) and alternative (AJ) junction mRNA; conditions: for AC50: read-out: MYB AJ (AC50, increase in AJ mRNA)
How it was run: as §1

SMN2 mRNA = assay: RT-qPCR splicing assay panel, SMN2 canonical junction (CJ) mRNA
How it was run: as §1

Target C mRNA = assay: RT-qPCR splicing assay panel, Target C canonical junction (CJ) mRNA
How it was run: as §1

[1] = Table 3A, A673 or K562 cells, 24 h treatment
[2] = Homo sapiens, 24 h, Table 3A, A673 or K562 cells, 24 h treatment
[3] = Homo sapiens, 24 h, Table 3A, A673 or K562 cells, 24 h treatment, read-out: HTT CJ (IC50, decrease in CJ mRNA)
[4] = Homo sapiens, canonical junction (CJ) mRNA, RT-qPCR panel, Table 4A, read-out: HTT, decrease in CJ mRNA levels, IC50
[5] = Homo sapiens, 24 h, Table 3A, A673 or K562 cells, 24 h treatment, read-out: MYB CJ (IC50, decrease in CJ mRNA)
[6] = Homo sapiens, canonical junction (CJ) mRNA, RT-qPCR panel, Table 4A, read-out: MYB, decrease in CJ mRNA levels, IC50
[7] = Homo sapiens, canonical junction (CJ) mRNA, RT-qPCR panel, Table 4A, read-out: SMN2, decrease in CJ mRNA levels, IC50
[8] = Homo sapiens, canonical junction (CJ) mRNA, RT-qPCR panel, Table 4A, read-out: Target C, decrease in CJ mRNA levels, IC50
[9] = Homo sapiens, 24 h, Table 3B, A673 or K562 cells, 24 h treatment

| SMILES | AC50 (HTT mRNA; [2]) [µM] | IC50 (HTT mRNA; [3]) [µM] | IC50 (HTT mRNA; [4]) [µM] | AC50 (MYB mRNA; [2]) [µM] | IC50 (MYB mRNA; [5]) [µM] | IC50 (MYB mRNA; [6]) [µM] | IC50 (SMN2 mRNA; [7]) [µM] | IC50 (Target C mRNA; [8]) [µM] | other results |
| --- | --- | --- | --- | --- | --- | --- | --- | --- | --- |
| COc1cc(-c2ccc(-c3ccc(N4CC[C@@H](NC5(C)CC5)C4)nn3)c(O)c2)cnn1 [Compound 266, 5-(6-methoxypyridazin-4-yl)-2-{6-[(3R)-3-[(1-methylcyclopropyl)amino]pyrrolidin-1-yl]pyridazin-3-yl}phenol] |  |  |  |  |  |  |  |  | AC50 (HTT mRNA; [1]): < 0.1 µM; IC50 (HTT mRNA; Table 3A, A673 or K562 cells, 24 h treatment, read-out: HTT CJ (IC50, decrease in CJ mRNA)): < 0.1 µM; IC50 (HTT mRNA; canonical junction (CJ) mRNA, RT-qPCR panel, Table 4A, read-out: HTT, decrease in CJ mRNA levels, IC50): < 0.1 µM; AC50 (MYB mRNA; [1]): 0.1 to 1 µM; IC50 (MYB mRNA; Table 3A, A673 or K562 cells, 24 h treatment, read-out: MYB CJ (IC50, decrease in CJ mRNA)): 0.1 to 1 µM; IC50 (MYB mRNA; canonical junction (CJ) mRNA, RT-qPCR panel, Table 4A, read-out: MYB, decrease in CJ mRNA levels, IC50): 0.1 to 1 µM; IC50 (SMN2 mRNA; canonical junction (CJ) mRNA, RT-qPCR panel, Table 4A, read-out: SMN2, decrease in CJ mRNA levels, IC50): < 0.1 µM; IC50 (Target C mRNA; canonical junction (CJ) mRNA, RT-qPCR panel, Table 4A, read-out: Target C, decrease in CJ mRNA levels, IC50): 0.1 to 1 µM |
| CC1(C)CC(Oc2nnc(-c3ccc(-c4cn[nH]c4)cc3O)cc2C#N)CC(C)(C)N1 [Compound 423] | 1 to 10 | 1 to 10 | 1 to 10 | > 10 | > 10 | > 10 | 0.1 to 1 | > 10 |  |
| NCCNC1CCN(c2ccc(-c3ccc(-c4cn[nH]c4)cc3O)nn2)C1 (stereo not drawn) [Compound 208] | 0.1 to 1 | 0.1 to 1 | 0.1 to 1 | 0.1 to 1 | 1 to 10 | 1 to 10 | 0.1 to 1 | 1 to 10 |  |
| CC(C)(C)NC1CCN(c2ccc(-c3ccc(-n4cccn4)c(O)c3)nn2)C1 (stereo not drawn) [Compound 109, 5-{6-[3-(tert-butylamino)pyrrolidin-1-yl]pyridazin-3-yl}-2-(pyrazol-1-yl)phenol trifluoroacetate] | > 10 | 1 to 10 | 1 to 10 | > 10 | > 10 | > 10 | 1 to 10 | > 10 |  |
| Oc1cc(-c2cn[nH]c2)c(F)cc1-c1ccc(N2CC[C@H](NC3CCC3)C2)nn1 [Compound 113, 2-{6-[(3S)-3-(cyclobutylamino)pyrrolidin-1-yl]pyridazin-3-yl}-4-fluoro-5-(1H-pyrazol-4-yl)phenol] | < 0.1 | < 0.1 | < 0.1 | < 0.1 | < 0.1 | < 0.1 | < 0.1 | < 0.1 |  |
| Cc1ncc(-c2ccc(-c3ccc(N4CC[C@@](C)(NCC5CC5)C4)nn3)c(O)c2)s1 (single isomer, unassigned) [Compound 439] | < 0.1 | < 0.1 | < 0.1 | 0.1 to 1 | 0.1 to 1 | 0.1 to 1 | < 0.1 | < 0.1 |  |
| Cc1ncc(-c2cc(O)c(-c3ccc(N4CC[C@@](C)(NCC5CC5)C4)nn3)cc2F)s1 (single isomer, unassigned) [Compound 399] | < 0.1 | < 0.1 | < 0.1 | 0.1 to 1 | 0.1 to 1 | 0.1 to 1 | < 0.1 | < 0.1 |  |
| COc1nc(-c2cnc(N3CCC(NC4CCC4)C3)nn2)ccc1-c1cnc(C)s1 (stereo not drawn) [Compound 421] | 0.1 to 1 | 0.1 to 1 | 0.1 to 1 | 0.1 to 1 | 0.1 to 1 | 0.1 to 1 | 0.1 to 1 | 0.1 to 1 |  |
| Cc1nnc(-c2ccc(-c3ccc(N4CC[C@@H](NCC5CC5)C4)nn3)c(O)c2)s1 [Compound 415] | < 0.1 | < 0.1 | < 0.1 | 0.1 to 1 | 0.1 to 1 | 0.1 to 1 | < 0.1 | 0.1 to 1 |  |
| Cn1c(=O)oc2cc(-c3ccc(N4CCC(NC(C)(C)C)C4)nn3)c(O)cc21 (stereo not drawn) [Compound 800] |  |  |  |  |  |  |  |  | AC50 (HTT mRNA; [9]): 0.1 to 1 µM; IC50 (HTT mRNA; Homo sapiens, 24 h, Table 3B, A673 or K562 cells, 24 h treatment, read-out: HTT CJ (IC50, decrease in CJ mRNA)): 0.1 to 1 µM; IC50 (HTT mRNA; Homo sapiens, Table 4B, gene panel, read-out: HTT (IC50, decrease in CJ mRNA levels)): 0.1 to 1 µM; AC50 (MYB mRNA; [9]): 0.1 to 1 µM; IC50 (MYB mRNA; Homo sapiens, 24 h, Table 3B, A673 or K562 cells, 24 h treatment, read-out: MYB CJ (IC50, decrease in CJ mRNA)): 1 to 10 µM; IC50 (MYB mRNA; Homo sapiens, Table 4B, gene panel, read-out: MYB (IC50, decrease in CJ mRNA levels)): 1 to 10 µM; IC50 (SMN2 mRNA; Homo sapiens, Table 4B, gene panel, read-out: SMN2 (IC50, decrease in CJ mRNA levels)): < 0.1 µM; IC50 (Target C mRNA; Homo sapiens, Table 4B, gene panel, read-out: Target C (IC50, decrease in CJ mRNA levels)): 0.1 to 1 µM |
| Oc1cc(-c2cn[nH]c2)ccc1-c1ccc(N2CCC(NCC3CC3)C2)nn1 (stereo not drawn) [Compound 108, 2-(6-{3-[(cyclopropylmethyl)amino]pyrrolidin-1-yl}pyridazin-3-yl)-5-(1H-pyrazol-4-yl)phenol; methane] | < 0.1 | < 0.1 | < 0.1 | 0.1 to 1 | 0.1 to 1 | 0.1 to 1 | < 0.1 | 0.1 to 1 |  |
| COc1cc(-c2ccc(-c3cc(C#N)c(OC4CC(C)(C)NC(C)(C)C4)nn3)c(O)c2)ncn1 [Compound 425] | 1 to 10 | 0.1 to 1 | 0.1 to 1 | 1 to 10 | 1 to 10 | 1 to 10 | 0.1 to 1 | 1 to 10 |  |
| Cc1ncc(-c2ccc(-c3ccc(N4CC[C@](C)(NC5CCC5)C4)nn3)c(O)c2)s1 [Compound 357] | < 0.1 | < 0.1 | < 0.1 | 0.1 to 1 | 0.1 to 1 | 0.1 to 1 | < 0.1 | < 0.1 |  |
| Cc1ncc(-c2cc(O)c(-c3ccc(N4CC[C@@H](N(C)C(C)(C)C)C4)nn3)cc2F)s1 [Compound 339, 2-{6-[(3R)-3-[tert-butyl(methyl)amino]pyrrolidin-1-yl]pyridazin-3-yl}-4-fluoro-5-(2-methyl-1,3-thiazol-5-yl)phenol] | < 0.1 | < 0.1 | < 0.1 | < 0.1 | < 0.1 | < 0.1 | < 0.1 | < 0.1 |  |
| COc1cc(-c2ccc(-c3ccc(N4CC[C@H](NC5CC5)C4)nn3)c(O)c2)cnn1 [Compound 215, 2-{6-[(3S)-3-(cyclopropylamino)pyrrolidin-1-yl]pyridazin-3-yl}-5-(6-methoxypyridazin-4-yl)phenol] | < 0.1 | < 0.1 | < 0.1 | 0.1 to 1 | 0.1 to 1 | 0.1 to 1 | < 0.1 | 0.1 to 1 |  |
